# Patent US20010027209A1, “Method and composition for treating and preventing mycobacterium infections” (Sarawak Medichem Pharmaceuticals, Inc., priority 1998, published 2001)
# Values joined by “and” are separate entries in the source; they are usually repeats but may differ in a detail not shown here. Equal entries are not always repeated. Where two headings read alike, the source gives them in different places.
# Legend:
# [1] = test system: Mycobacterium tuberculosis H37Rv; assay: in vitro primary screening assay in BACTEC 12B medium, BACTEC 460 radiometric system; assay type: cell-based; details: for MIC: M. tuberculosis H37Rv; for inhibition at 12.5 µg/mL: H37RV
# Mtb = details: against Mtb, background section; cited from earlier work
# M. tuberculosis H37Rv = assay: actual minimum inhibitory concentration (MIC) at lower concentrations, BACTEC 460; assay type: cell-based; details: Mycobacterium tuberculosis, lowest concentration inhibiting 99% of the inoculum
# [2] = table of Example 38, 12.5 μg/mL
# [3] = Mycobacterium tuberculosis, concentration 12.5 μg/mL, BACTEC 12B medium, read-out: inhibition against Mtb H37Rv
# [4] = Mycobacterium tuberculosis, table of Example 38, 12.5 μg/mL, read-out: % Inhibition
# [5] = Mycobacterium tuberculosis, table of Example 38, read-out: MIC
# [6] = concentration 12.5 μg/mL, BACTEC 12B medium
Molecule,"% Inhibition [1, 2] [%]",MIC ([1]; table of Example 38) [µg/mL],"inhibition against Mtb H37Rv [1, 6]",further results
"CCCc1cc(=O)oc2c3c(c4c(c12)OC(C)(C)CC4)OC(C)C(C)C3=O (racemic) [(±)-Trans-dihydroketone, (±)-10,11-trans-4-Propyl-7,8,10,11-tetrahydro-6,6,10,11-tetramethyl-2 H,6 H,12 H-benzo[1,2-b:3,4-b′:5,6-b″]tripyran-2,12-dione]",43,<12.5,–,–
"CCCc1cc(=O)oc2c3c(c4c(c12)OC(C)(C)C=C4)OC(C)C(C)C3=O (racemic) [(±)-Trans-ketone, 10,11-trans-dihydro-4-propyl-6,6,10,11-tetramethyl-2 H,6 H,12 H-benzo[1,2-b:3,4b′:5,6-b″]-tripyran-2,12-dione]",59,<12.5,–,–
"CCCc1cc(=O)oc2c3c(c4c(c12)OC(C)(C)C=C4)OC(C)C(C)C3=O (single isomer, unassigned; (-)) [(−)-Trans-ketone]",78,<12.5,–,–
"CCCc1cc(=O)oc2c3c(c4c(c12)OC(C)(C)C=C4)O[C@@H](C)[C@H](C)[C@@H]3O [Costatolide, (−)-calanolide B]",–,–,–,"inhibition at 12.5 µg/mL [1, 3]: 99%; inhibition at 12.5 µg/mL [1, 4]: 99%; MIC [1, 5]: < 12.5 µg/mL"
NC(=O)c1cnccn1 [Pyrazinamide],–,–,–,MIC (Mtb): 20 µg/mL
C[C@H]1[C@H](C)Oc2c3c(c4c(-c5ccccc5)cc(=O)oc4c2[C@H]1O)OC(C)(C)C=C3 [Soulattrolide],–,–,–,"inhibition at 12.5 µg/mL [1, 3]: 99%; inhibition at 12.5 µg/mL [1, 4]: 99%; MIC [1, 5]: < 12.5 µg/mL"
CO[C@H]1/C=C/O[C@@]2(C)Oc3c(C)c(O)c4c(O)c(c(/C=N/N5CCN(C)CC5)c(O)c4c3C2=O)NC(=O)/C(C)=C\C=C\[C@H](C)[C@H](O)[C@@H](C)[C@@H](O)[C@@H](C)[C@H](OC(C)=O)[C@@H]1C [rifampicin],–,–,–,MIC (M. tuberculosis H37Rv): 0.06 µg/mL
(+)-Calanolide A,–,–,98% and 96%,–
"(−)-7,8-dihydrosoulattrolide [(−)-7,8-Dihydrosoulatrolide]",99,<12.5,99%,–
(−)-Calanolide A,–,–,98%,–
